# Data taken from patent US20230136562A1, “SPIROUREA DERIVATIVES” (Idorsia Pharmaceuticals Ltd, priority 2020, published 2023).
# Where two headings read alike, the source gives them in different places.
# Tested on: primary neuronal cultures from embryonic rat brains
# Assay: Rat oscillation assay (FLIPR, neuronal calcium oscillations)
# Assay type: cell-based
# Procedure: A) Rat Oscillation Assay:
# This assay is a functional phenotypic assay designed to mimic epileptic seizures using primary neuronal cultures from embryonic rat brains, which form a functional neuronal network that generate synchronized intracellular calcium concentration oscillations when cultured at high density in 384-well plate. The epileptic phenotype is induced by incubating the neurons in magnesium-free assay buffer, that results in increased probability of NMDA receptor activation, leading to an increased frequency and amplitude of intracellular calcium oscillations. Once neurons are incubated with the calcium indicator dye Fluo-8 AM (Tebu-bio), neuronal calcium oscillations can be monitored in real time using FLIPR® Tetra (fluorometric plate reader, Molecular Devices). With these recordings, the effect of anti-epileptic drugs can be quantified. The anti-epileptic effect of compounds, which activate directly or indirectly the Kv7 channels can be modulated by the Kv7 channel blocker XE-991. The assay was performed as described previously (Pacico N, Mingorance-Le Meur A. New In Vitro Phenotypic Assay for Epilepsy: Fluorescent Measurement of Synchronized Neuronal Calcium Oscillations. PLoS ONE 9(1) 2014) with modifications described hereafter.
# Animal care followed standard procedures in accordance with swiss institutional guidelines. Dissociated neuronal cultures were obtained from cerebral cortices of embryonic Wistar rats at embryonic stage E18 (Charles River). The uterine horns were removed by caesarian surgery from deeply anesthetized rats (Isofurane) and sacrificed by decapitation. The embryos were decapitated by closing forceps. The brains were isolated and dissected one by one in ice-cold PBS (Life Technologies) under optical control using a binocular. Meninges, olfactory bulbs, and basal ganglia were removed. Cortical hemispheres (still including the hippocampus) were cut in small pieces with tweezers and placed on ice in pre-chilled Hibernate-E medium (Life technology). The hemispheres were then incubated in 10 mL of Hibernate-E containing 15 U/mL papain (Worthington) for 25 min at 30° C. with gentle mixing every 10 min. Genomic DNA was then digested by prolonging the incubation during 10 min at 37° C. in presence of 4 U/mL rDNase I (Ambion). The obtained suspension was then centrifuged at 800 g for 5 min and the cell pellet was resuspended in 2 mL Hibernate-E and gently dissociated by pipetting up and down 10 times with a plastic Pasteur pipette resulting in a homogenous cell suspension. This suspension was immediately filtered through a 70 µm cell strainer (MACS® SmartStrainer, Miltenyi), collected in 10 mL Hibernate-E and centrifuged at 800 g for 5 min. The cell pellet was resuspended in Neurobasal medium, supplemented with 2% B-27, 0.5 mM Glutamax-I, 100 U/mL penicillin, 100 µg/mL streptomycin (Life Technologies) and diluted at the final concentration of 300′000 cells/mL. One day before plating the cells, 384-well plates were coated with 25 μL/well of 0.1% poly-L-lysine solution (Sigma), incubated overnight at 37° C., washed two times with sterile distilled water and allowed to dry at room temperature for >2 h. The neurons were seeded at a density of 15′000 cells/well in 50 μL/well in a 384-well black, clear-bottomed plates (Corning) and subsequently maintained in an incubator at 37° C., 5% CO2 and 95% humidity for 8 to 10 days. After 3 and 7 days, 40% of media was renewed under sterile conditions.
# Protocol Rat Oscillation Assay
# Neurons seeded in the assay plates were washed with Hank's balanced salt solution (HBSS) devoid of Ca^2+ and Mg^2+, supplemented with 20 mM HEPES (Life Technologies) and 2 mM CaCl2 (Sigma), pH 7.4 (hereafter called Assay buffer) using a Biotek EL406 plate washer. Neurons were loaded with 1 μM Fluo-8 AM in Assay buffer for 15 min at 37° C., 5% CO2. […]
# [1] = AUC of fluorescence measured 20 min after compound addition, read-out: FLIPR: IC50 [nM] 20 min
# [2] = Rattus norvegicus, Acute phase, ratio of AUC fluorescence before and after compound addition, read-out: FLIPR: IC50 [nM] acute
# [3] = Rattus norvegicus, 20 min, AUC of fluorescence measured 20 min after compound addition, read-out: FLIPR: IC50 [nM] 20 min
Structure (SMILES),IC50 [1] [nM],IC50 [2] [nM],IC50 [3] [nM],"IC50 (Acute phase, ratio of AUC fluorescence before and after compound addition, read-out: FLIPR: IC50 [nM] acute) [nM]"
"CC(Oc1cccc(C2(NC(=O)NC3CC4(CCC4)C3)CC2)c1)C(F)(F)F (single isomer, unassigned) [Example 169, 1-Spiro[3.3]hept-2-yl-3-{1-[3-(2,2,2-trifluoro-1-methyl-ethoxy)-phenyl]-cyclopropyl}-urea]",20,42,,
"CC(NC(=O)NC1CC2(CCC2)C1)c1ccnc(OC(C)C(F)(F)F)c1 (stereo not drawn) [Example 101, 1-(Spiro[3.3]heptan-2-yl)-3-(1-(2-((1,1,1-trifluoropropan-2-yl)oxy)pyridin-4-yl)ethyl)urea]",,2.4,1.6,
"O=C(NCc1cccc(OC(F)(F)F)c1)NC1CC2(CCC2)C1 [Example 41, 1-Spiro[3.3]hept-2-yl-3-(3-trifluoromethoxy-benzyl)-urea]",,44,25,
"CC(C)(NC(=O)NC1CC2(CCC2)C1)c1ccnc(OC(F)F)c1 [Example 52, 1-[1-(2-Difluoromethoxy-pyridin-4-yl)-1-methyl-ethyl]-3-spiro[3.3]hept-2-yl-urea]",,72,143,
"O=C(NC1CC2(CCC2)C1)NC(CCO)c1cccc(C(F)(F)F)c1 (racemic) [Example 74, (±)-1-[3-Hydroxy-1-(3-trifluoromethyl-phenyl)-propyl]-3-spiro[3.3]hept-2-yl-urea]",,27,30,
"Cc1ccc(C(C)NC(=O)NC2CC3(CCC3)C2)cc1OCC(F)(F)F (racemic) [Example 26, (±)-1-{1-[4-Methyl-3-(2,2,2-trifluoro-ethoxy)-phenyl]-ethyl}-3-spiro[3.3]hept-2-yl-urea]",,190,206,
"CC(NC(=O)NC1CC2(CCC2)C1)c1ccnc(OC(F)(F)F)c1 (racemic) [Example 97, (±)-1-Spiro[3.3]hept-2-yl-3-[1-(2-trifluoromethoxy-pyridin-4-yl)-ethyl]-urea]",,53,170,
"COC[C@H](NC(=O)NC1CC2(CC2)C1)c1ccnc(OCC(F)(F)F)c1 (single isomer, unassigned) [Example 188]",,5.3,5.6,
"O=C(NCc1cccc2c1OC(F)(F)O2)NC1CC2(CCC2)C1 [Example 46, 1-(2,2-Difluoro-benzo[1,3]dioxol-4-ylmethyl)-3-spiro[3.3]hept-2-yl-urea]",,234,285,
"O=C(NC1CC2(CC2)C1)NC(CCO)c1cccc(OC(F)(F)F)c1 (racemic) [Example 138, (±)-1-[3-Hydroxy-1-(3-trifluoromethoxy-phenyl)-propyl]-3-spiro[2.3]hex-5-yl-urea]",,60,92,
"N#CCC(NC(=O)NC1CC2(CCC2)C1)c1cccc(OC(F)(F)F)c1 (racemic) [Example 66, (±)-1-[2-Cyano-1-(3-trifluoromethoxy-phenyl)-ethyl]-3-spiro[3.3]hept-2-yl-urea]",,8.2,17,
"O=C(NC1CC2(CCC2)C1)NC1COc2ccc(OC(F)(F)F)cc21 (racemic) [Example 11, (±)-1-Spiro[3.3]hept-2-yl-3-(5-trifluoromethoxy-2,3-dihydro-benzofuran-3-yl)-urea]",,246,171,
"CC(Oc1cc(CNC(=O)NC2CC3(CC3)C2)ncn1)C(F)(F)F (racemic) [Example 120, (±)-1-Spiro[2.3]hex-5-yl-3-[6-(2,2,2-trifluoro-1-methyl-ethoxy)-pyrimidin-4-ylmethyl]-urea]",,136,151,
"O=C(NC1CC2(CCC2)C1)NC(c1cccc(C(F)(F)F)c1)c1c[nH]nn1 (racemic) [Example 162, (±)-1-Spiro[3.3]hept-2-yl-3-[(1H-[1,2,3]triazol-4-yl)-(3-trifluoromethyl-phenyl)-methyl]-urea]",,120,124,
"NC(=O)CCC(NC(=O)NC1CC2(CCC2)C1)c1cccc(C(F)(F)F)c1 (racemic) [Example 79, (±)-4-(3-Spiro[3.3]hept-2-yl-ureido)-4-(3-trifluoromethyl-phenyl)-butyramide]",,599,634,
"CC(NC(=O)NC1CC2(CCC2)C1)c1ccnc(OCC(F)(F)F)c1 (racemic) [Example 93, (±)-1-Spiro[3.3]hept-2-yl-3-{1-[2-(2,2,2-trifluoro-ethoxy)-pyridin-4-yl]-ethyl}-urea]",,1.9,2.2,
"Cn1nnnc1C(NC(=O)NC1CC2(CCC2)C1)c1cccc(C(F)(F)F)c1 (racemic) [Example 163, (±)-1-[(1-Methyl-1H-tetrazol-5-yl)-(3-trifluoromethyl-phenyl)-methyl]-3-spiro[3.3]hept-2-yl-urea]",,204,282,
"CC(NC(=O)NC1CC2(CC2)C1)c1cccc(OCC(F)(F)F)c1F (racemic) [Example 131, (±)-1-{1-[2-Fluoro-3-(2,2,2-trifluoro-ethoxy)-phenyl]-ethyl}-3-spiro[2.3]hex-5-yl-urea]",,29,52,
"CC(Oc1cccc(C2(NC(=O)NC3CC4(CCC4)C3)CC2)c1)C(F)(F)F (single isomer, unassigned) [Example 170, 1-Spiro[3.3]hept-2-yl-3-{1-[3-(2,2,2-trifluoro-1-methyl-ethoxy)-phenyl]-cyclopropyl}-urea]",59,,,76
"CC(NC(=O)NC1CC2(CCC2)C1)c1cccc(OC(C)C(F)(F)F)c1 (stereo not drawn) [Example 102, 1-(Spiro[3.3]heptan-2-yl)-3-(1-(3-((1,1,1-trifluoropropan-2-yl)oxy)phenyl)ethyl)urea]",,2.8,0.5,
"COCC(NC(=O)NC1CC2(CCC2)C1)c1ccnc(OCC(F)(F)F)c1 (racemic) [Example 92, (±)-1-{2-Methoxy-1-[2-(2,2,2-trifluoro-ethoxy)-pyridin-4-yl]-ethyl}-3-spiro[3.3]hept-2-yl-urea]",,1.3,0.8,
"CC(NC(=O)NC1CC2(CCC2)C1)c1cccc(S(C)(=O)=O)c1 (racemic) [Example 36, (±)-1-[1-(3-Methanesulfonyl-phenyl)-ethyl]-3-spiro[3.3]hept-2-yl-urea]",,236,330,
"COCC(NC(=O)NC1CC2(CCC2)C1)c1cccc(S(C)(=O)=O)c1 (racemic) [Example 86, (±)-1-[1-(3-Methanesulfonyl-phenyl)-2-methoxy-ethyl]-3-spiro[3.3]hept-2-yl-urea]",,110,91,
"C[C@H](NC(=O)NC1CC2(CC2)C1)c1ccnc(OC(F)F)c1 (single isomer, unassigned) [Example 189]",,221,196,
"CC(NC(=O)NC1CC2(CCC2)C1)c1cccc(OCC(F)(F)F)c1Cl (racemic) [Example 30, (±)-1-{1-[2-Chloro-3-(2,2,2-trifluoro-ethoxy)-phenyl]-ethyl}-3-spiro[3.3]hept-2-yl-urea]",,252,269,
"CN(C)CC(Oc1cc(CNC(=O)NC2CC3(CCC3)C2)ccn1)C(F)(F)F (racemic) [Example 106, (±)-1-[2-(1-Dimethylaminomethyl-2,2,2-trifluoro-ethoxy)-pyridin-4-ylmethyl]-3-spiro[3.3]hept-2-yl-urea]",,535,757,
"COc1c(OCC(F)(F)F)ncnc1C(C)NC(=O)NC1CC2(CC2)C1 (racemic) [Example 152, (±)-1-{1-[5-Methoxy-6-(2,2,2-trifluoro-ethoxy)-pyrimidin-4-yl]-ethyl}-3-spiro[2.3]hex-5-yl-urea]",,520,532,
